The results in this text go back to ChEMBL document CHEMBL1926604, “Design and synthesis of pyridin-2-ylmethylaminopiperidin-1-ylbutyl amide CCR5 antagonists that are potent inhibitors of M-tropic (R5) HIV-1 replication” (Bioorg Med Chem Lett, 2011).

For series [1], the system named is Human immunodeficiency virus 1. As to the kind of experiment: Antiviral activity against R5 tropic Human immunodeficiency virus 1 BAL infected in human PBMC cells assessed as reduction in viral replication by p24 detection based ELISA. The series is classed as functional, organism-based. In general terms: ELISA stands for enzyme-linked immunosorbent assay.
Series [2] is described as follows: Cytotoxic activity against human PBMC assessed as reduction in cell viability. The series is classed as cell-based.
Series [3] can be described thus: Plasma protein binding in human plasma at 1 uM after 5 hrs by LC-MS/MS analysis. The series is classed as ADME, cell-free. Particulars: read-out: PPB (converted).
A short description of series [4]: Volume of distribution at steady state in dog at 5 umol/kg, iv. Particulars: in vivo, read-out: Vdss. Format: ADME, organism-based, Canis lupus familiaris.
Series [5] can be described thus: Half life in dog at 5 umol/kg, iv. Format: ADME, organism-based, Canis lupus familiaris. To be noted: in vivo.
Series [6] can be described thus: Volume of distribution at steady state in rat at 10 umol/kg, iv. The series is classed as ADME, organism-based. To be noted: in vivo, 10 umol/kg, read-out: Vdss.
Series [7] is described as follows: Clearance in rat at 10 umol/kg, iv. To be noted: in vivo. The series is classed as ADME, organism-based.
Series [8] in a line: Cmax in dog. The series is classed as ADME, organism-based, Canis lupus familiaris. Particulars: in vivo.
Series [9] is described as follows: Oral bioavailability in rat. To be noted: in vivo. The series is classed as ADME, organism-based.
Series [10] in a line: Half life in rat at 10 umol/kg, iv. Format: ADME, organism-based. Particulars: in vivo, 10 umol/kg.
A short description of series [11]: Oral bioavailability in dog. The series is classed as ADME, organism-based, Canis lupus familiaris. Particulars: in vivo.
The nature of series [12]: AUC (0 to infinity) in rat. Format: ADME, organism-based. Details: time infinity; concentration or dose not given beside the values. Particulars: plasma.
A short description of series [13]: Cmax in rat. Format: ADME, organism-based. To be noted: in vivo.
A short description of series [14]: AUC (0 to infinity) in dog. The series is classed as ADME, organism-based, Canis lupus familiaris. Details: time infinity; concentration or dose not given beside the values. To be noted: plasma.
The nature of series [15]: Clearance in dog at 5 umol/kg, iv. To be noted: in vivo. The series is classed as ADME, organism-based, Canis lupus familiaris.

For the compound `CC(CCNC(=O)c1c(Cl)cncc1Cl)N1CCC(N(Cc2ccc(Cl)cc2)c2ccc(Br)cc2)CC1` (stereo unspecified), the half-maximal inhibitory concentration (IC50) (usually the concentration that inhibits the measured activity by half) in series [1] is more than 1.3 µM. Further, in [2], the CC50 (as a rule, the concentration at which the toxic effect on the cells reaches its halfway point) was 4.3 µM.

Regarding `COc1ccc(N(Cc2cnccc2C)C2CCN([C@H](C)CCNC(=O)c3c(C)cc(C#N)nc3C)CC2)cc1`, the IC50 in [1] came out at 0.0254 µM. Further, in [3], the fraction unbound at 5 h, 1 µM was 0.02. In series [2], the half-maximal cytotoxic concentration (CC50) is more than 34.8 µM.

For the compound `COc1ccc(N(Cc2cnccc2C)C2CCN([C@H](C)CCNC(=O)c3c(C)cc(F)nc3C)CC2)cc1`, the Vd is 8.3 L/kg in series [4] and 4.6 L/kg in series [6]. The half-life (usually the time needed for the level to fall by half in the phase considered) in series [5] is 3 h; in series [10], 3.3 h. For the same compound, the figures for the clearance in series [7] and in [15] were 16.6 mL/min/kg and 32 mL/min/kg, respectively. Besides, the maximum concentration (Cmax) (commonly the maximum level reached in the sampled fluid or tissue) in series [8] is 410 nM; in [13] it was 1270 nM. Further, the bioavailability (commonly dose-corrected exposure relative to a reference, in per cent) in [9] amounted to 3%; in series [11], 10%. In addition, the half-maximal inhibitory concentration (IC50) in [1] was found to be 0.0022 µM. The AUC(0-inf) (as a rule, the area under the concentration-time curve extrapolated to infinity) amounted to 10.9 µM·h in series [12] and 0.65 µM·h in series [14]. Moreover, the fraction unbound at 5 h, 1 µM in series [3] was 0.21. Moreover, the CC50 in [2] was more than 36.3 µM.

Take `Cc1ccncc1CN(c1ccc(OCC(N)=O)cc1)C1CCN([C@H](C)CCNC(=O)c2c(C)cc(C#N)nc2C)CC1`: the IC50 in series [1] came out at 0.0033 µM. In addition, the fraction unbound at 5 h, 1 µM in [3] was 0.11. Besides, in series [2], the CC50 is more than 34.3 µM.

Regarding `CC(CCNC(=O)c1c(Cl)cncc1Cl)N1CCC(N(Cc2ccccc2)c2ccc(C(=O)N(C)C)cc2)CC1` (stereo unspecified), the concentration for half-maximal inhibition (IC50) in series [1] was determined as 9.63 µM. For the same compound, the CC50 in series [2] is more than 30 µM.

As to `COc1ccc(N(Cc2cnccc2C)C2CCN([C@H](C)CCNC(=O)c3c(C)cc(C(=O)NC(C)C)nc3C)CC2)cc1`, the Vd in series [4] is 5.2 L/kg. In addition, in series [5], the half-life is 2.8 h. In addition, in series [8], the Cmax worked out at 920 nM. The compound also registered a bioavailability in [11] of 5%. Further, in series [1], the half-maximal inhibitory concentration (IC50) worked out at 0.00096 µM. The AUC(0-inf) in series [14] came out at 0.48 µM·h. For the same compound, the fraction unbound at 5 h, 1 µM in series [3] was 0.11. Further, the clearance (in general, the rate of elimination divided by the concentration) in [15] amounted to 21.1 mL/min/kg. Moreover, in series [2], the cytotoxic concentration (CC50) was more than 32.8 µM.

As to `CC(CCNC(=O)c1c(Cl)cncc1Cl)N1CCC(N(Cc2ccccc2)c2ccc(OC(F)(F)F)cc2)CC1` (stereo unspecified), the IC50 in series [1] worked out at 0.059 µM. In addition, the CC50 in series [2] is 4 µM.

Regarding `COCCOc1ccc(N(Cc2cnccc2C)C2CCN([C@H](C)CCNC(=O)c3c(C)cc(C#N)nc3C)CC2)cc1`, the IC50 in series [1] came out at 0.0323 µM. The fraction unbound at 5 h, 1 µM in series [3] was 0.08. Further, the 50% cytotoxic concentration (CC50) in [2] was more than 32.6 µM.

`COc1ccc(N(Cc2cnccc2C)C2CCN([C@H](C)CCNC(=O)c3c(C)ccnc3C)CC2)cc1`: the IC50 in series [1] is 1.04 µM. Further, in series [3], the fraction unbound at 5 h, 1 µM is 0.05. Further, in [2], the CC50 is more than 38.9 µM.

As to `COc1ccc(N(Cc2ccccc2)C2CCN(C(C)CCNC(=O)c3c(Cl)cncc3Cl)CC2)cc1` (stereo unspecified), the IC50 in [1] worked out at 2.17 µM. The CC50 in series [2] was 36.5 µM.

With `COCCOc1ccc(N(Cc2cnccc2C)C2CCN([C@H](C)CCNC(=O)c3c(C)cc(F)nc3C)CC2)cc1`, the IC50 in [1] turned out to be 0.0231 µM. Also, the fraction unbound at 5 h, 1 µM in [3] was 0.19. The CC50 in series [2] was more than 32.7 µM.

Take `COc1ccc(N(Cc2cccc(C#N)n2)C2CCN([C@H](C)CCNC(=O)c3c(C)cc(Cl)nc3C)CC2)cc1`: the Vd in [4] stood at 3 L/kg. The same compound showed a half-life in [5] of 0.8 h. The same compound showed a peak concentration (Cmax) in series [8] of 520 nM. Further, the bioavailability in series [11] is 15%. Besides, the IC50 in [1] was 0.0035 µM. This compound also came in with an AUC(0-inf) in series [14] of 0.72 µM·h. Further, in [3], the fraction unbound at 5 h, 1 µM was 0.16. Besides, the clearance in [15] was found to be 42.7 mL/min/kg. Also, the CC50 in [2] was more than 35.1 µM.

Take `CC(CCNC(=O)c1c(Cl)cncc1Cl)N1CCC(N(Cc2cccc(C#N)c2)c2ccc(C#N)cc2)CC1` (stereo unspecified): the IC50 in series [1] was found to be 0.376 µM. Also, the CC50 in series [2] was 33.6 µM.

`COC(=O)c1ccc(N(Cc2ccccc2)C2CCN(C(C)CCNC(=O)c3c(Cl)cncc3Cl)CC2)cc1` (stereo unspecified): in series [1], the concentration for half-maximal inhibition (IC50) worked out at 0.177 µM. For the same compound, the cytotoxic concentration (CC50) in [2] was 21.4 µM.

For `CC(CCNC(=O)c1c(Cl)cncc1Cl)N1CCC(N(Cc2ccccc2Cl)c2ccc(Br)cc2)CC1` (stereo unspecified), the half-inhibitory concentration (IC50) in series [1] is more than 1.25 µM. For the same compound, the 50% cytotoxic concentration (CC50) in series [2] is 5.7 µM.

On to `CC(CCNC(=O)c1c(Cl)cncc1Cl)N1CCC(N(Cc2ccccc2)c2ccc(C(F)(F)F)cc2)CC1` (stereo unspecified), for which the 50% inhibitory concentration (IC50) in series [1] was determined as 0.11 µM. The half-maximal cytotoxic concentration (CC50) in series [2] turned out to be 8.1 µM.

As to `COc1ccc(N(Cc2cccnc2)C2CCN([C@H](C)CCNC(=O)c3c(C)cc(F)nc3C)CC2)cc1`, the IC50 in series [1] amounted to 0.0296 µM. In series [3], the fraction unbound at 5 h, 1 µM was 0.14. Further, the CC50 in series [2] is more than 36.7 µM.

Turning to `Cc1ccncc1CN(c1ccc([S+](C)[O-])cc1)C1CCN([C@H](C)CCNC(=O)c2c(C)ncnc2C)CC1` (stereo partly specified), in [1], the IC50 is more than 32.1 µM. Besides, the CC50 in [2] was more than 32.4 µM.

Regarding `COc1ccc(N(Cc2cccc(C#N)n2)C2CCN([C@H](C)CCNC(=O)c3c(C)cc(C#N)nc3C)CC2)cc1`, the concentration for half-maximal inhibition (IC50) in series [1] amounted to 0.0039 µM. In [3], the fraction unbound at 5 h, 1 µM is 0.09. Also, the CC50 in series [2] was more than 36.3 µM.

Consider `CC(CCNC(=O)c1c(Cl)cncc1Cl)N1CCC(N(Cc2ccccc2)c2ccc(C#N)cc2)CC1` (stereo unspecified), for which, in [1], the 50% inhibitory concentration (IC50) was determined as 0.38 µM. Moreover, in [2], the CC50 came to 9.7 µM.

`CC(CCNC(=O)c1c(Cl)cncc1Cl)N1CCC(N(Cc2ccccc2)c2ccc(Br)cc2)CC1` (stereo unspecified): in series [1], the concentration for half-maximal inhibition (IC50) was found to be 0.22 µM.

Consider `COc1ccc(N(Cc2cccc(C#N)c2)C2CCN(C(C)CCNC(=O)c3c(Cl)cncc3Cl)CC2)cc1` (stereo unspecified), for which the IC50 in series [1] was determined as 0.014 µM. In series [2], the CC50 is more than 1.76 µM.

With `COCCOc1ccc(N(Cc2cnccc2C)C2CCN([C@H](C)CCNC(=O)c3c(C)cc(Cl)nc3C)CC2)cc1`, the Vd worked out at 4.9 L/kg in [4] and 9.2 L/kg in series [6]. Further, the half-life in series [5] was 1.3 h; in series [10], 1.7 h. For the same compound, the clearance in series [7] amounted to 61.2 mL/min/kg; in [15], 157 mL/min/kg. Also, the Cmax turned out to be 10 nM in [8] and 1070 nM in series [13]. Also, the bioavailability in [9] was 27%; in series [11], less than 1%. For the same compound, in series [1], the half-maximal inhibitory concentration (IC50) was found to be 0.002 µM. In addition, the total exposure AUC(0-inf) came to 7.18 µM·h in series [12] and 0.02 µM·h in series [14]. For the same compound, the fraction unbound at 5 h, 1 µM in series [3] is 0.15. For the same compound, the CC50 in series [2] was more than 32.7 µM.

On to `COc1ccc(N(Cc2cnccc2C)C2CCN([C@H](C)CCNC(=O)c3c(C)cncc3C)CC2)cc1`, for which the IC50 in series [1] turned out to be 11.5 µM. The half-maximal cytotoxic concentration (CC50) in series [2] was more than 38.8 µM.

On to `CC(CCNC(=O)c1c(Cl)cncc1Cl)N1CCC(N(Cc2cccc(Cl)c2)c2ccc(Br)cc2)CC1` (stereo unspecified), for which, in [1], the half-inhibitory concentration (IC50) stood at 0.4 µM. The 50% cytotoxic concentration (CC50) in series [2] amounted to 7.3 µM.

Regarding `Cc1ccncc1CN(c1ccccc1)C1CCN([C@H](C)CCNC(=O)c2c(C)cc(C#N)nc2C)CC1`, the fraction unbound at 5 h, 1 µM in [3] is 0.06.

Regarding `COc1cccc(CN(c2ccc(Br)cc2)C2CCN(C(C)CCNC(=O)c3c(Cl)cncc3Cl)CC2)c1` (stereo unspecified), the IC50 in series [1] came to 2.88 µM. In addition, the CC50 in series [2] amounted to 6.4 µM.

Turning to `COc1ccc(N(Cc2cccc(C#N)n2)C2CCN([C@H](C)CCNC(=O)c3c(C)cc(F)nc3C)CC2)cc1`, the half-inhibitory concentration (IC50) in series [1] stood at 0.0036 µM. Moreover, in series [3], the fraction unbound at 5 h, 1 µM is 0.21. Besides, the cytotoxic concentration (CC50) in series [2] was more than 35.8 µM.

Regarding `CC(CCNC(=O)c1c(Cl)cncc1Cl)N1CCC(N(Cc2cccc(C#N)c2)c2ccc(C(F)(F)F)cc2)CC1` (stereo unspecified), the 50% inhibitory concentration (IC50) in series [1] came out at 0.001 µM. Moreover, in series [2], the CC50 is 12.3 µM.

For the compound `CC(CCNC(=O)c1c(Cl)cncc1Cl)N1CCC(N(Cc2cccc(C#N)c2)c2ccc(Br)cc2)CC1` (stereo unspecified), in [1], the concentration for half-maximal inhibition (IC50) came to 0.089 µM. The 50% cytotoxic concentration (CC50) in series [2] was 6.7 µM.
